{"source": "patent US20040162275A1", "about": "“Multivalently interactive molecular assembly, capturing agent, drug carrier, calcium chelating agent, and drug enhancer” (Nobuhiko Yui, priority 2002, published 2004)", "target": "concanavalin A (ConA) (Canavalia ensiformis, UniProt P02866)", "assay": "Hemagglutination inhibition test, Mal-polyrotaxane conjugate and ConA (Example 11)", "format": "cell-based", "conditions": "rat erythrocyte, ConA at 4-fold minimum hemagglutinating concentration, maltose basis, FIG. 19", "method": "Next, hemagglutination inhibition test was performed to evaluate the interaction between Mal-polyrotaxane conjugate and concanavalin A (ConA), then 20 μL of diluted Mal-polyrotaxane conjugate in saline and 20 μL of solution of ConA in saline were dispensed in a 96well plate (U-bottom), stirred, and then incubated at 37° C. for 30 minutes. Next, 40 μL of 2% (v/v) rat erytlirocyte was added to the plate, and the mixture was stirred and then incubated at 37° C. for 30 minutes. The precipitation of erythrocyte was monitored to determine hemagglutination, and the minimum concentration to inhibit hemagglutination was determined. The ConA concentration was set up at a 4-fold higher value than the minimum concentration of ConA at which hemagglutination occurs.\nRelative MIC=(Min. inhibitory conc. of maltose)/(Min inhibitory conc. of maltose in the conjugate)", "data": [{"smiles": "OC[C@H]1O[C@H](O[C@H]2[C@H](O)[C@@H](O)C(O)O[C@@H]2CO)[C@H](O)[C@@H](O)[C@@H]1O", "note": "(mixture of isomers) [Mal, maltose]", "values": [{"measurement": "minimum concentration to inhibit hemagglutination", "result": 9.1, "unit": "mM"}]}]}
